{"source": "ChEMBL document CHEMBL1201862", "about": "“PubChem BioAssay data set” (2004)", "key": {"[1]": {"target": "T1, Neuropeptides B/W receptor type 1 (Homo sapiens, UniProt P48145)", "T1 sequence (P48145 whole entry)": "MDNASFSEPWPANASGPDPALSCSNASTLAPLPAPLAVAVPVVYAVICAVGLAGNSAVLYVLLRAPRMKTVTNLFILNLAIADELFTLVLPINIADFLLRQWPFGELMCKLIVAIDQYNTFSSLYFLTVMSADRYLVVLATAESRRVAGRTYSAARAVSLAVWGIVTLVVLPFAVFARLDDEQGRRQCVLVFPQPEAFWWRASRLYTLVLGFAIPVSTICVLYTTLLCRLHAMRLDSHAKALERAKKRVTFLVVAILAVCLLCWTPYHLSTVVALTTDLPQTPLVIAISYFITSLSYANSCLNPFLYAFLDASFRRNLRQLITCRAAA", "test": "Fluorescence-based dose response cell-based high throughput screening assay to identify antagonists of the G-protein coupled receptor 7 (GPR7). [Related pubchem assays: 1952 (Screening assay (GPR7 antagonists).), 1880 (Summary AID.)]", "assay_type": "functional"}, "[2]": {"target": "Melanin-concentrating hormone receptor 1 (Homo sapiens, UniProt Q99705)", "sequence (Q99705 whole entry)": "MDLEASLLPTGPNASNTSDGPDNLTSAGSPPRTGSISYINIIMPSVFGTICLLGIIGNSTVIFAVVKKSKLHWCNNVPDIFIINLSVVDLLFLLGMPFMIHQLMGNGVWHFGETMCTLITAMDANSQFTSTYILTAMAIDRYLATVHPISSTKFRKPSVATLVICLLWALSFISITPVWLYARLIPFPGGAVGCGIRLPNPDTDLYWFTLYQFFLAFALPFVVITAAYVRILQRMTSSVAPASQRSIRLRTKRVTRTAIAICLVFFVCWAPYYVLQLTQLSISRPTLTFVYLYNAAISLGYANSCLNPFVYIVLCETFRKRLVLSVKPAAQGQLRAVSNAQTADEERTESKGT", "test": "Fluorescence-based counterscreen for antagonists of the G-protein coupled receptor 7 (GPR7): cell-based high throughput dose response assay to identify antagonists of the melanin-concentrating hormone receptor 1 (MCHR1).", "assay_type": "functional"}, "Ephrin type-A receptor 4": {"target": "Ephrin type-A receptor 4 (Mus musculus, UniProt Q03137)", "sequence (Q03137 whole entry)": "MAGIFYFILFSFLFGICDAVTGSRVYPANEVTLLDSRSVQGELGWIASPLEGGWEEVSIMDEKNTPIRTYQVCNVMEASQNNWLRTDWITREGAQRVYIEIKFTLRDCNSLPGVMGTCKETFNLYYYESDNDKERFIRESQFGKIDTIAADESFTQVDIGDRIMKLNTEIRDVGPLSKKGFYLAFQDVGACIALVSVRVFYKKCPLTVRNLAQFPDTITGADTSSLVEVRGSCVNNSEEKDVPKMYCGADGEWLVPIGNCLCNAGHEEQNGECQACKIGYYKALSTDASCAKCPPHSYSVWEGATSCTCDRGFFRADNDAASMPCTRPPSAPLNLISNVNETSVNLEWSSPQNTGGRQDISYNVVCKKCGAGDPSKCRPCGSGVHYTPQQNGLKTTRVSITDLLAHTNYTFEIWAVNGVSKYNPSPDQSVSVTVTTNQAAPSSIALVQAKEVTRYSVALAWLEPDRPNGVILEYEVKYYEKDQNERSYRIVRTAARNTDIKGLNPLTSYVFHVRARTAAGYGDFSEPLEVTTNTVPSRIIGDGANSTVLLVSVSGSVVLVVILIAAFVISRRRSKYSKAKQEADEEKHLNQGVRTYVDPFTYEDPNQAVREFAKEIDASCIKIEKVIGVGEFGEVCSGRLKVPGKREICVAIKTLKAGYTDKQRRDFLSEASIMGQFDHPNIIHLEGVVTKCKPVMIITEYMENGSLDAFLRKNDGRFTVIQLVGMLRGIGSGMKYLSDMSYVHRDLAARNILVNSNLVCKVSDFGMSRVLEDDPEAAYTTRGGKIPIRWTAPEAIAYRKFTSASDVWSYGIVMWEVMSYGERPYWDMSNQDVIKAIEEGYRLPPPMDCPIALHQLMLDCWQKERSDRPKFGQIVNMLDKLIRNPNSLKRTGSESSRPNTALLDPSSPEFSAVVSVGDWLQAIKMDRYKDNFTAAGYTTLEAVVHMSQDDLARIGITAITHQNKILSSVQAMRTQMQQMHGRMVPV", "test": "inhibitors of EphA4 binding to KYL peptide, primary screen, biochemical, colorimetric, mouse EphA4 (AID 689)", "assay_type": "functional"}, "[3]": {"test": "Luminescence Cell-Based Dose Confirmation HTS to Identify Activators of 5'UTR Stem-Loop Driven Alpha-Synuclein mRNA Translation in H4 Neuroglioblastoma Cells. [Related pubchem assays: 1829 (Project Summary), 1814 (Primary HTS)]", "assay_type": "functional"}, "[4]": {"test": "Luminescence Cell-Based Dose Response HTS to Identify Activators of Luciferase Translation or Activity in H4 […] Cells. [Related pubchem assays: 1829 (Project Summary), 1814 (Primary HTS)]", "assay_type": "functional"}, "[5]": {"test": "Luminescence Cell-Based Dose Confirmation to Identify Activators of 5'UTR Stem-Loop Driven Alpha-Synuclein mRNA Translation in H4 Neuroglioblastoma Cells. [Related pubchem assays: 1829 (Project Summary), 1814 (Primary HTS)]", "assay_type": "functional"}, "[6]": {"test": "Luminescence Cell-Based Dose Response to Identify Activators of Luciferase Translation or Activity in H4-C Neuroglioblastoma Cells. [Related pubchem assays: 1829 (Project Summary), 1814 (Primary HTS)]", "assay_type": "functional"}, "[7]": {"test": "Luminescence Cell-Based Dose Response to Identify Activators of 5'UTR Stem-Loop Driven Prion Protein mRNA Translation in H4-C Neuroglioblastoma Cells. [Related pubchem assays: 1829 (Project Summary), 1814 (Primary HTS)]", "assay_type": "functional"}, "Genome polyprotein": {"target": "Genome polyprotein (dengue virus type 2, UniProt P29990)", "sequence (P29990 2492-3391 limits assumed)": "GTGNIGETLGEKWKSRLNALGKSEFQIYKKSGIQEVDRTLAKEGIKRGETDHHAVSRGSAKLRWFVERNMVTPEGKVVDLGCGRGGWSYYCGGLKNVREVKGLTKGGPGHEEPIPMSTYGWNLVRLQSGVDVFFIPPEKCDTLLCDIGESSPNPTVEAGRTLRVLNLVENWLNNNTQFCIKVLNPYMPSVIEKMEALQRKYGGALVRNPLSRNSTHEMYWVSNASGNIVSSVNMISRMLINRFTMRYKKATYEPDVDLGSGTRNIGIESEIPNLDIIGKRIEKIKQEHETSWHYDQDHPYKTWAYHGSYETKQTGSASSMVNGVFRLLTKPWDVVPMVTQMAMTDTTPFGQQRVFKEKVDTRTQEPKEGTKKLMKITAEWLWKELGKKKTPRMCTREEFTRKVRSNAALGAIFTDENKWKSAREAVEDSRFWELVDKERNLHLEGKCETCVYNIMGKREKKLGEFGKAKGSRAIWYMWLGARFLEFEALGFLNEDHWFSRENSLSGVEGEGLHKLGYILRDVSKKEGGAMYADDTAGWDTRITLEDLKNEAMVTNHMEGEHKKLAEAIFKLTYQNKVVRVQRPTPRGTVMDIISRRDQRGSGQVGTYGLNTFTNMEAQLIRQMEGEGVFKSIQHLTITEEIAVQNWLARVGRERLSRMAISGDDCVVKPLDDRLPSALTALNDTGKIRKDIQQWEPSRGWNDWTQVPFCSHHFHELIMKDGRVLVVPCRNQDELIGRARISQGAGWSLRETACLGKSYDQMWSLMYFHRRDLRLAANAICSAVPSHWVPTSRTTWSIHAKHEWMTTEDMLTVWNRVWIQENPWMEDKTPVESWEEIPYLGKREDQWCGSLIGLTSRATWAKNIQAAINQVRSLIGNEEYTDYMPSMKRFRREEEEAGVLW", "test": "Dengue-2 NS5 methyltransferase inhibitors, primary screen, biochemical, confirmation dose response (AID 588689)", "assay_type": "functional"}, "[8]": {"test": "inhibitors of intracellular T. cruzi replication, confirmation, NIH3T3 host cells, beta-gal luminescence (AID 2044);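 note: luminescent beta-galactosidase reporter signal from transgenic T. cruzi replicating inside host cells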", "assay_type": "functional, cell-based"}, "H4": {"tested_on": "H4", "test": "Luminescence Cell-Based Dose Response HTS to Identify Activators of 5'UTR Stem-Loop Driven Prion Protein mRNA Translation in H4 Neuroglioblastoma Cells. [Related pubchem assays: 1829 (Project Summary), 1814 (Primary HTS)]", "assay_type": "functional", "conditions": "Homo sapiens"}, "[9]": {"test": "cytotoxicity toward NIH3T3 fibroblasts, dose response, counter-screen, cell-based, ATP luminescence, mouse fibroblasts (AID 2010);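 note: cells exposed to compound for about 90 hours before reading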", "assay_type": "functional"}, "[10]": {"target": "T2, Histone-lysine N-methyltransferase NSD2 (Homo sapiens, UniProt O96028)", "T2 sequence (O96028 whole entry)": "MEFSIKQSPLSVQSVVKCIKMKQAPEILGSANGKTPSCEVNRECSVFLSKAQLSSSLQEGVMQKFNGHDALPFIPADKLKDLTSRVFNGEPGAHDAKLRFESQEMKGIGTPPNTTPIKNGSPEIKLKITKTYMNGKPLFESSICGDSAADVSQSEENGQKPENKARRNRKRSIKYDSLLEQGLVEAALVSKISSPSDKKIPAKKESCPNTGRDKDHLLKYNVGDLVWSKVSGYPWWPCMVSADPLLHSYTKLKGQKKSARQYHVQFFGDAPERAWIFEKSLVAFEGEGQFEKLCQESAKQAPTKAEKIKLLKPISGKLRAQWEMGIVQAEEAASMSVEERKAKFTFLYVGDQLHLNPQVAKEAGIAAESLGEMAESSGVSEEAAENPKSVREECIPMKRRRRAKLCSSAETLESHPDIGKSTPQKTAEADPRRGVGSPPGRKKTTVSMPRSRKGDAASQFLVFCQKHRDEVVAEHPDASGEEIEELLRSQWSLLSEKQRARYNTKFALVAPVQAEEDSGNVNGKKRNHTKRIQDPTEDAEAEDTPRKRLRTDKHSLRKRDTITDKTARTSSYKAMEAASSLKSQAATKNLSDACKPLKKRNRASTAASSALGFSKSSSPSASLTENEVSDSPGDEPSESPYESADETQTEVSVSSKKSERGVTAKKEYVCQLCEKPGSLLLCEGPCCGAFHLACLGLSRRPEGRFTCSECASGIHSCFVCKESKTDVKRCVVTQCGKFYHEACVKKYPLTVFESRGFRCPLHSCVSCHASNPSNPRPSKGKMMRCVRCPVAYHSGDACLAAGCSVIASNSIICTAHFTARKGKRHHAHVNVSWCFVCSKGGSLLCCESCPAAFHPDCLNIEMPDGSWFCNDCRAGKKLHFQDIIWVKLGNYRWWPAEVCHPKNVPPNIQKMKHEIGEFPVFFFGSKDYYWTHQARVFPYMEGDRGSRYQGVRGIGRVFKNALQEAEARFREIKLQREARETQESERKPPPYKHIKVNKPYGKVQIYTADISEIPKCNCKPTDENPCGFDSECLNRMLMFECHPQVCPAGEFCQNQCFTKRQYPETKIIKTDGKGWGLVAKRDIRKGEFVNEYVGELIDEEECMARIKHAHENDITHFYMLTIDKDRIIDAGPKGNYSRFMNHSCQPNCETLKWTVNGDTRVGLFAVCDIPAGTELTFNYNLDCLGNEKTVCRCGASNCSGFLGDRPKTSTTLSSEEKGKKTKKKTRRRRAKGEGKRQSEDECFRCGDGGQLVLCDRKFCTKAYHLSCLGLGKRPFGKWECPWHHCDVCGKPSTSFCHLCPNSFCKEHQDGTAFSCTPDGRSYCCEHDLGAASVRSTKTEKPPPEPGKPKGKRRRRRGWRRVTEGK", "assay_type": "biochemical"}, "[11]": {"target": "E3 ubiquitin-protein ligase Mdm2 (Homo sapiens, UniProt Q00987)", "sequence (Q00987 whole entry)": "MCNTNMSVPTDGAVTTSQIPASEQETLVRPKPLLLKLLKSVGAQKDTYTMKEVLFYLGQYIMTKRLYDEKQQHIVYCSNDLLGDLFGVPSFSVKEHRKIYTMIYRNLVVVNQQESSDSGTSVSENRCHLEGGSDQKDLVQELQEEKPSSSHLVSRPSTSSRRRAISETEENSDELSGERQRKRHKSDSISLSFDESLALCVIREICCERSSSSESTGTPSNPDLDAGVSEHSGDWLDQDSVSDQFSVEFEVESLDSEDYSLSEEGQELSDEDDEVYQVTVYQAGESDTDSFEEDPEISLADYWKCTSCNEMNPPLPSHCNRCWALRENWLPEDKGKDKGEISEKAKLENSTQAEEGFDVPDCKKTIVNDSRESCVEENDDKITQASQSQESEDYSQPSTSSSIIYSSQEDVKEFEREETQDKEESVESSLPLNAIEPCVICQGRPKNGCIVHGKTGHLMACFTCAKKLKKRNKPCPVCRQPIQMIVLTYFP", "test": "enhancers of MDM2-luciferase reporter signal, concentration-effect titration, project on inhibitors of MDM2 ubiquitin ligase, cellular assay, luminescent readout, 384-well plate format (AID 1394);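 note: MDM2 E3 inhibitors raise luminescence so EC50 is for signal enhancement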", "assay_type": "functional"}}, "note": "Active and inactive are the calls of the source. Cut-off read from the data, not from the text of the source, for most assays here: actives have a measured EC50 and inactives only a lower limit."}
{"smiles": "CCOc1ccc([N+](=O)[O-])cc1CNC1CCCCCCC1", "values": [{"measurement": "IC50", "setting": "[1]", "value": "27.3 µM (not active)"}, {"measurement": "IC50", "setting": "[2]", "value": "12.6 µM (not active)"}]}
{"smiles": "CCn1c(COc2ccccc2C)nnc1SCC(=O)Nc1cc(C)on1", "values": [{"measurement": "IC50", "setting": "Ephrin type-A receptor 4", "value": "> 100 µM (not active)"}]}
{"smiles": "O=C(O)c1cccc(NC2=C(Cl)C(=O)c3ccccc3C2=O)c1", "values": [{"measurement": "EC50", "setting": "[3]", "value": "1.44 µM (active)"}, {"measurement": "EC50", "setting": "[4]", "value": "< 0.1 µM (active)"}, {"measurement": "EC50", "setting": "[5]", "value": "> 12 µM (not active)"}, {"measurement": "EC50", "setting": "[6]", "value": "0.149 µM (active)"}, {"measurement": "EC50", "setting": "[7]", "value": "> 12 µM (not active)"}, {"measurement": "IC50", "setting": "Genome polyprotein", "value": "15.6 µM (active)"}, {"measurement": "EC50", "setting": "[8]", "value": "> 30 µM (not active)"}, {"measurement": "EC50", "setting": "H4", "value": "6.76 µM (active)"}, {"measurement": "EC50", "setting": "[9]", "value": "5.21 µM (active)"}, {"measurement": "AC50", "setting": "[10]", "value": "5.2 µM (active)"}]}
{"smiles": "O=C(NC1CCCCC1)C(c1cccnc1)N(C(=O)c1ccc(Cl)nc1)C1CCCCC1", "note": "(stereo not given)", "values": [{"measurement": "EC50", "setting": "[11]", "value": "12.7 µM (not active)"}]}
{"smiles": "C=CCN(c1cccc(C(F)(F)F)c1)S(=O)(=O)c1cccc(C(=O)OCC(=O)NCCC)c1", "values": [{"measurement": "EC50", "setting": "[11]", "value": "277 µM (not active)"}]}
